Like-named read-outs stand apart in the source and are kept apart here.
Columns and labels:
aPC = aPC (Homo sapiens, UniProt P04070); assay: Enzyme inhibition assay, chromogenic substrate S-2366
Factor IXa = Factor IXa (Homo sapiens, UniProt P00740); assay: Enzyme inhibition assay, substrate Spectrozyme
Factor XIIa = molecular target: T1, Factor XIIa (Homo sapiens, UniProt P00748); assay: Enzyme inhibition assay, chromogenic substrate S-2302
T1 sequence (P00748 373-615 limits assumed): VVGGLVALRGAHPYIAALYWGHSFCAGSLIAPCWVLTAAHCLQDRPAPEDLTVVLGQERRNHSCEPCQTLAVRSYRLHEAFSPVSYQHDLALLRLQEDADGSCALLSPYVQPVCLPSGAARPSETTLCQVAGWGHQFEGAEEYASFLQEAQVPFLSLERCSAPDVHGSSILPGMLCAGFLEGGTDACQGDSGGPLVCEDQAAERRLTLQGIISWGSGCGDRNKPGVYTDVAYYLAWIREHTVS
T1 sequence (P00748 20-372 partner limits assumed): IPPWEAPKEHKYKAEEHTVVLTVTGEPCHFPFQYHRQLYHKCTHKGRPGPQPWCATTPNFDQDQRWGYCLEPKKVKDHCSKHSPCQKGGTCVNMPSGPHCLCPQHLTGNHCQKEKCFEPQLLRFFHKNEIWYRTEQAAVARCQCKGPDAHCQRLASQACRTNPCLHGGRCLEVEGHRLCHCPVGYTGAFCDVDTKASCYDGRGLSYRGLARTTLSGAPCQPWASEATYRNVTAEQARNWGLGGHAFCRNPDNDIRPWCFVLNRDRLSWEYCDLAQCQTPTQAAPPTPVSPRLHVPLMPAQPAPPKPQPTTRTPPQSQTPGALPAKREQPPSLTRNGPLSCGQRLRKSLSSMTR

Plasmin [1] = molecular target: T2, Plasmin (Homo sapiens, UniProt P00747); assay: Enzyme inhibition assay, chromogenic substrate S-2251
[2] = system: clotting of human platelet-poor plasma; assay: Activated partial thromboplastin time (aPTT) clotting assay; type: biochemical; conditions: 37°C
Method: (§1) Both PT and aPTT assays were performed as recommended by the vendor (Diagnostica Stago). Briefly, citrated normal pooled human platelet-poor plasma was mixed with test compound (2% DMSO) at 37°C. Subsequently, either the aPTT assay reagent or PT assay reagent was added and mixed thoroughly. CaCl2 was then added to trigger the clotting process. The time for clot formation was measured in seconds and the test compound concentration to double the clotting time (CT2x) was determined.

[3] = system: thrombin generation in human platelet-poor plasma; assay: Thrombin generation assay (TGA); type: biochemical; conditions: 70% human platelet-poor plasma, 37°C
Method: The assay was performed with human platelet-poor plasma (70% final concentration) in buffer containing 20 mM HEPES (pH 7.4), 150 mM NaCl, and compound in DMSO (4% final concentration). The assay also contained phospholipids (approx. 3 μM) and Dade Innovin (1/5000 final dilution of stock). The reaction was triggered by the addition of a solution containing substrate (Z-GGR-AMC, 0.5 mM final concentration) and CaCl2 (15 mM final concentration). The reaction was then monitored kinetically by fluorescence (excitation 380 nm, emission 460 nm) at 37°C for 90 min.

Factor VIIa = Factor VIIa (Homo sapiens, UniProt P08709); assay: Enzyme inhibition assay, chromogenic substrate S-2238
Trypsin = assay: Enzyme inhibition assay, chromogenic substrate S-2765; type: biochemical; conditions: 10 min preincubation, 3 nM enzyme
Method: Final reaction volumes were 100 μL.
For FXIIa, the buffer also contained 50 mM imidazole. […] The buffer for FIXa (50 nM final concentration) was 50 mM Tris, 100 mM NaCl, 5 mM CaCl2, and 30% ethylene glycol.

Factor XIa [4] = molecular target: T3, Factor XIa (Homo sapiens, UniProt P03951); assay: Enzyme inhibition assay, chromogenic substrate S-2366
Factor Xa [5] = molecular target: T4, Factor Xa (Homo sapiens, UniProt P00742); assay: Enzyme inhibition assay, chromogenic substrate S-2765
[6] = system: clotting of human platelet-poor plasma; conditions: 37°C
Method: as §1

[7] = Pharmacokinetics (PK) in CD-1 mice; conditions: male, CD-1, mouse, plasma, iv, 0.5 mg/kg
Method: The test compound was injected intravenously (i.v.) into CD-1 mice at 0.5 mg/kg in formulation containing 5% DMA (dimethyl acetamide) 15% Solutol HS15 and 80% water. Animals were euthanized at predefined time points by CO2 inhalation and blood was collected in K2-EDTA vacutainers by cardiac puncture. The vials were then centrifuged to collect plasma. […] LC-MS was performed using a Luna Omega 1.6 μm Polar C18 (Phenomenex) column, a Shimadzu Nexera UHPLC, and a Sciex QTrap 5500 mass spectrometer. The PK parameters were calculated by non-compartmental analysis using Phoenix WinNonlin (Certara).

Factor XIa [8] = molecular target: T3, Factor XIa; assay: Progress curve kinetics experiments; type: biochemical
Method: (§3) The data for the initial time points, up to at least 65% reaction progress, were analyzed as described in Wakselman et al. [20].

Plasmin [9] = molecular target: T2, Plasmin; assay: Progress curve kinetics experiments; type: biochemical; design: purchased Haemtech Biopharma Services
Method: The data for the initial time points, up to at least 65% reaction progress, were analyzed as described in Wakselman et al..
Thus, when fitting to Eq (3), the extracted values kobs for each well were plotted against the modified inhibitor concentration [I]′0=(1−α)[I]0. (6)
For the experiments presented in this paper, n = 2 and the mean and standard deviation are reported for each parameter.

[10] = Liver microsome (LM) stability assay; type: in vitro ADME; conditions: liver microsomes, NADPH, n = 2, read-out: LM stability t½
Method: Compound at 1 μM (0.5% final DMSO concentration) was incubated with a 0.5 mg/mL CD-1 mouse (Sigma), SD rat (Life Technologies), or human liver microsome (Life Technologies) in the presence of 1 mM NADPH at 37°C for up to one hour. Aliquots were taken out at different time points and quenched in acetonitrile containing diclofenac (internal standard). […] Verapamil was used as a positive control, and warfarin was used as a negative control.

Factor Xa [11] = molecular target: T4, Factor Xa; assay: Progress curve kinetics experiments; type: biochemical; design: purchased Haemtech Biopharma Services
Method: as §3

[12] = Control sample in buffer in the absence of thrombin; conditions: 50 mM Tris pH 7.4, 100 mM NaCl, 0.2% PEG 8000, up to overnight
Method: The reaction was then quenched with acetonitrile and centrifuged at 4°C, 1000x RCF, for 10 min to pellet the protein. […] Quantification of the compounds was performed by LC-MS using a Shimadzu Nexera X2 UPLC system coupled with a Sciex QTrap 5500. Chromatography was performed on a LunaOmega Polar C18 analytical column (1.6 μm, 50 x 2.1 mm). The mobile phases were 0.025% formic acid in water and 0.025% formic acid in acetonitrile.

Plasma stability assay = type: in vitro ADME; conditions: 37°C, n = 2, read-out: Plasma stability t½
Method: The compound at 20 μM (2% final DMSO concentration) was incubated with CD-1 mouse (Innovative Research), SD rat (Innovative research), or human plasma (George King BioMed) at 37°C for up to three hours. Aliquots were taken out at different time points and quenched in acetonitrile containing diclofenac (internal standard). The samples were then centrifuged and the supernatant was analyzed by UHPLC using a Kinetex 2.6 μm C18 (Phenomenex) column and a Shimadzu Nexera UHPLC. Verapamil was used as a positive control.

WT human α-thrombin = molecular target: T5, WT human α-thrombin (Homo sapiens, UniProt P00734); assay: Binding of a dansyl probe to thrombin (tryptophan fluorescence); conditions: 1 μM compound, 80 nM thrombin, excitation 280 nm, emission 340 nm
T5 construct: made in house; host or cells: E. coli
Method: (§2) Compound 2 at 1 μM was incubated with WT human α-thrombin (80 nM) or the active site mutant protein S195A at room temperature for 10 min. Then, fluorescence measurements (excitation 280 nm, emission 340 nm) were recorded in kinetic mode.

thrombin mutant S195A = molecular target: T6, thrombin mutant S195A (Homo sapiens, UniProt P00734, S568A); assay: as above; conditions: 1 μM compound, excitation 280 nm, emission 340 nm
T6 construct: made in house; host or cells: E. coli
Method: as §2

thrombin = thrombin (Homo sapiens, UniProt P00734); assay: Enzyme inhibition assay, chromogenic substrate S-2238
[13] = read-out: Cmax EC50 (peak height)
[14] = read-out: ETP EC50 (endogenous thrombin potential)

aPC, sequence (P04070 212-450 limits assumed): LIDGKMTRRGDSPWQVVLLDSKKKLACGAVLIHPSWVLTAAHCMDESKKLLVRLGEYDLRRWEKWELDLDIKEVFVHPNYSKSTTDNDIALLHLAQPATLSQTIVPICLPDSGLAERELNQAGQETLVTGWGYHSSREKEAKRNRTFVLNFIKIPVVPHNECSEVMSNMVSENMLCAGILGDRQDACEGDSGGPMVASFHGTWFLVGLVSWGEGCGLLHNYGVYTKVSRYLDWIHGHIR
aPC, sequence (P04070 43-197 partner limits assumed): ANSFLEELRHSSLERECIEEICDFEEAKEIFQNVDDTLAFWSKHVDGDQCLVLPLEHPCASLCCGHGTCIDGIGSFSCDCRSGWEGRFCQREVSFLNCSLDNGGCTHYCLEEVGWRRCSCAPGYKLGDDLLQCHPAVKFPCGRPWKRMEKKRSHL
T2 sequence (P00747 581-810 limits assumed, species assumed): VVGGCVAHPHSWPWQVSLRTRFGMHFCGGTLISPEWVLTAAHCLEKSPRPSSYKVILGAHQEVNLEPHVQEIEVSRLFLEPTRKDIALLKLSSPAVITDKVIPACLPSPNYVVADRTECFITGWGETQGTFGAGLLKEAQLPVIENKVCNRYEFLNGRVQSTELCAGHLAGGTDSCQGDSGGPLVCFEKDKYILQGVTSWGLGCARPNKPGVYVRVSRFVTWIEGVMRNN
T2 sequence (P00747 97-580 partner limits assumed, species assumed): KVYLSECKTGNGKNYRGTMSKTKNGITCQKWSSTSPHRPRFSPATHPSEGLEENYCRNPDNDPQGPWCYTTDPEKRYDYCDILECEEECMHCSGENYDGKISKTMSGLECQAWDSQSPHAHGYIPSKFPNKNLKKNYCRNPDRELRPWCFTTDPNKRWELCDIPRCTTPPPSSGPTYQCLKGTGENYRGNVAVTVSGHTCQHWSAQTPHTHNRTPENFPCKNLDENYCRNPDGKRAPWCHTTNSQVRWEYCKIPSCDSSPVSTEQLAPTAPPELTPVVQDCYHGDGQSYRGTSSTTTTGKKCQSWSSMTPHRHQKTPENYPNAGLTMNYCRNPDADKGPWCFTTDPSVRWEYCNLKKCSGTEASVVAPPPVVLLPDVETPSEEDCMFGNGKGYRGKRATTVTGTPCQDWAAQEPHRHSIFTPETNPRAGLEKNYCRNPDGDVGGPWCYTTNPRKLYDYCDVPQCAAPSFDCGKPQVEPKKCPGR
T3 sequence (P03951 388-625 limits assumed): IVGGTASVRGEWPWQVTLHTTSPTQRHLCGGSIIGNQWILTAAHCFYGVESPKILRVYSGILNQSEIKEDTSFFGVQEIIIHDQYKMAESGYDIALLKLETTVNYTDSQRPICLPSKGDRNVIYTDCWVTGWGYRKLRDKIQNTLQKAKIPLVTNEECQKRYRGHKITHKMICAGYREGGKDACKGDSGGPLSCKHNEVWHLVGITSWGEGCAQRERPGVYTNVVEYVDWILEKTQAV
T3 sequence (P03951 19-387 partner limits assumed): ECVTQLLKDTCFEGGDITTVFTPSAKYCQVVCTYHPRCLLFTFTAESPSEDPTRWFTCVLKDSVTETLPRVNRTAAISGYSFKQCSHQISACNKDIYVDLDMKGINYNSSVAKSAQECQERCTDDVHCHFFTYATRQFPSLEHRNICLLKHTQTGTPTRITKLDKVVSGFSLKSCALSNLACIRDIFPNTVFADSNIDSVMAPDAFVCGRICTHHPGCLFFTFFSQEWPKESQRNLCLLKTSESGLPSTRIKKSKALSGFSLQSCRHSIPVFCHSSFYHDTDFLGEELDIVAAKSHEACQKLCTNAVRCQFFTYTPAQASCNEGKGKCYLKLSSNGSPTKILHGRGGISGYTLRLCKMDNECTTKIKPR
T4 sequence (P00742 235-488 limits assumed): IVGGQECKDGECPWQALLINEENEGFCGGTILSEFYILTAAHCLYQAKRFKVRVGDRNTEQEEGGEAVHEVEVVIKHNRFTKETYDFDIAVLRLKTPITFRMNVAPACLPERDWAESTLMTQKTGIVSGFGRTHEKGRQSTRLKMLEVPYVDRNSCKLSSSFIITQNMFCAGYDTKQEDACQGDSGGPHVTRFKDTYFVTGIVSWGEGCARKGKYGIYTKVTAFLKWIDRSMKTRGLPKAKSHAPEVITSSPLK
T4 sequence (P00742 41-179 partner limits assumed): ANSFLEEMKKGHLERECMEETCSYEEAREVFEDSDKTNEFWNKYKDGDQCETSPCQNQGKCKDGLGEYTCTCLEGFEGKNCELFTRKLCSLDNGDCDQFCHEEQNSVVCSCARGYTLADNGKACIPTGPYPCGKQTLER
Factor IXa, sequence (P00740 227-461 limits assumed): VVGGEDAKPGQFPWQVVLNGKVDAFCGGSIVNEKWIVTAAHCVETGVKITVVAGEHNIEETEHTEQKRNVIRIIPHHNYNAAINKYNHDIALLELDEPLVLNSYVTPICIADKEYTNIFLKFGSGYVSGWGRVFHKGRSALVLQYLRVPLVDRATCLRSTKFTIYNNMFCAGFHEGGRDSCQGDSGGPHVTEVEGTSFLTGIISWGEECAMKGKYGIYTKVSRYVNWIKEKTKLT
Factor IXa, sequence (P00740 47-191 partner limits assumed): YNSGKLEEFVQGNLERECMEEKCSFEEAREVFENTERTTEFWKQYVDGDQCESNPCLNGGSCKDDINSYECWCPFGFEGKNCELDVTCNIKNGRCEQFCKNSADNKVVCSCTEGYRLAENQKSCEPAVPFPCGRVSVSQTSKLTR
Factor VIIa, sequence (P08709 213-466 limits assumed): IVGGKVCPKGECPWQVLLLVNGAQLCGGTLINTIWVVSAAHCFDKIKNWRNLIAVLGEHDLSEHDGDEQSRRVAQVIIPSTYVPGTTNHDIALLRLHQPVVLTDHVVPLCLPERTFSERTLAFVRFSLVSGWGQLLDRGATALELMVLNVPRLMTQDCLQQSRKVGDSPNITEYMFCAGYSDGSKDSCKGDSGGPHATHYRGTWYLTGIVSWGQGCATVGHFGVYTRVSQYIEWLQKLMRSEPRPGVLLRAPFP
Factor VIIa, sequence (P08709 61-212 partner limits assumed): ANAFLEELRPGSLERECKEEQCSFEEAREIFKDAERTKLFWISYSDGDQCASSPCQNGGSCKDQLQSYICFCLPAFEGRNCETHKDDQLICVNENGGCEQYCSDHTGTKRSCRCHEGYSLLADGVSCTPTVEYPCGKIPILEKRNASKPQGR
Factor VIIa, sequence (P13726 33-295 partner): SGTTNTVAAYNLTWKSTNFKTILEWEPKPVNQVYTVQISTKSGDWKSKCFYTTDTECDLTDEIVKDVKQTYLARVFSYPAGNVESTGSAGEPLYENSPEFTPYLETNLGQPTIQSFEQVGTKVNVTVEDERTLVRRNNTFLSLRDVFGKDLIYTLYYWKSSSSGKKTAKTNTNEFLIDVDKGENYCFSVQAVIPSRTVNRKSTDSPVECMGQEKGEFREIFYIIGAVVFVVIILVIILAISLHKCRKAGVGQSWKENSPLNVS

SMILES | IC50 (aPC) [µM] | IC50 (Factor IXa) [µM] | IC50 (Factor XIIa) [µM] | IC50 (Plasmin [1]) [µM] | CT2x in aPTT assay (concentration to double the clotting time) [2] [µM] | EC50 [3, 13] [µM] | EC50 [3, 14] [µM] | IC50 (Factor VIIa) [µM] | IC50 (Factor XIa [4]) [µM] | IC50 (Factor Xa [5]) [µM] | IC50 (thrombin) [µM] | further results
CC1CNc2c(cccc2S(=O)(=O)N[C@@H](CCCNC(=N)N)C(=O)N2CC[C@@H](C)C[C@@H]2C(=O)O)C1 (some centres unmarked) [Argatroban] | > 50 | > 50 | > 50 | > 50 | 0.27 ± 0.15 | 0.27 ± 0.05 | 0.34 ± 0.11 | > 50 | > 50 | > 50 |  | IC50 (Trypsin): > 50 µM; CT2x in PT assay (concentration to double the clotting time) [6]: 0.60 ± 0.14 µM
COc1ccccc1C(=O)n1nc(C2CCNCC2)c(F)c1NCc1ccc(Cl)s1 [Compound 1] | > 50 | > 50 | > 50 | 0.7 ± 0.15 | > 100 |  |  | 13.8 ± 2.8 | 2.8 ± 0.2 | 8.3 ± 3.4 |  | AUC [7]: 88 ng·h/mL; C0 [7]: 260 ng/mL; Vd [7]: 30 L/kg; clearance [7]: 183 mL/min/kg; half-life [7]: 114 min; Ki (Factor XIa [8]): 5.5 ± 4 µM; Ki (Plasmin [9]): 0.8 ± 0.6 µM; half-life at 1 μM ([10]; CD-1 mouse liver microsome 0.5 mg/mL): 20 ± 2 min; half-life at 1 μM ([10]; Human liver microsome 0.5 mg/mL): 110 min; half-life at 1 μM ([10]; SD rat liver microsome 0.5 mg/mL): 8 ± 1.6 min; Ki (Factor Xa [11]): 94 ± 57 µM; stability in buffer in the absence of thrombin [12]: stable over the entire course of the experiment; half-life at 20 μM (Plasma stability assay; CD-1 mouse plasma): 14 ± 1 min; half-life at 20 μM (Plasma stability assay; Human plasma): 89 ± 9 min; half-life at 20 μM (Plasma stability assay; SD rat plasma): 25 min
CN(C)c1cccc2c(S(=O)(=O)Nc3ccc(C(=O)n4nc(C5CCNCC5)c(F)c4NCc4ccc(Cl)s4)cc3)cccc12 [Compound 2] |  |  |  |  |  |  |  |  |  |  | 0.08 | change of tryptophan fluorescence on incubation with thrombin WT (WT human α-thrombin): time-dependent change in the fluorescence intensity at 340 nm; change of tryptophan fluorescence on addition to thrombin S195A (thrombin mutant S195A): failed to produce any change in fluorescence
Fc1c(C2CCNCC2)n[nH]c1NCc1ccc(Cl)s1 [Compound 3] |  |  |  |  |  | > 100 | > 100 |  |  |  | > 100 | Tmax EC2x (concentration necessary to shift the time to peak 2-fold) [3]: > 100 µM
[H]/N=C(/N)c1ccc(NCc2nc3cc(C(=O)N(CCC(=O)O)c4ccccn4)ccc3n2C)cc1 [Dabigatran] | 41.3 ± 7.6 | > 50 | > 50 | 8.4 ± 2.6 |  | 0.24 ± 0.08 | 0.21 ± 0.04 | 40.7 ± 13.3 | 4.2 ± 1.5 |  |  | 

Source: paper PMC6072017, “Reversible covalent direct thrombin inhibitors” (PLoS ONE, 2018)
